Measured values from PMC3625477 (Journal of acquired immune deficiency syndromes (1999), 2013).
“And” between values parts separate entries of the source, which are not always exact repeats. Equal entries are not always repeated. Where two headings read alike, the source gives them in different places.

Assays:
wild-type virus = details: total lopinavir; cited from earlier work
[1] = format: in vivo, HIV-infected pregnant women; details: for concentration at 12 h / AUC(0-t) / Cmax: female, human, plasma; for concentration at 12 h: oral, C12h; for concentration at 12 h / AUC(0-t) / Cmax / C12h / Cl: protein unbound, median; for AUC(0-t) / Cmax: po; for AUC(0-t): AUC0–12h
Total = format: in vivo, HIV-infected pregnant women; details: for concentration at 12 h / AUC(0-t) / Cmax: plasma; for concentration at 12 h: oral, C12h; for AUC(0-t) / Cmax: po; for AUC(0-t): AUC0–12h
wild type virus (HIV) = details: unbound lopinavir; cited from earlier work
[2] = tested on: blood plasma proteins albumin and alpha-1-acid-glycoprotein (AAG); details: cited from earlier work
[3] = 8 wks postpartum (PK4), LPV/RTV 400mg/100mg twice daily
[4] = 20–24 wks (PK1), LPV/RTV 400mg/100mg twice daily
[5] = 30 wks (PK2), LPV/RTV 400mg/100mg twice daily
[6] = 32 wks (PK3), LPV/RTV 500mg/125mg twice daily
[7] = female, human, total (bound + unbound), 8 wks postpartum (PK4), LPV/RTV 400mg/100mg twice daily, median
[8] = female, human, total (bound + unbound), 20–24 wks (PK1), LPV/RTV 400mg/100mg twice daily, median
[9] = female, human, total (bound + unbound), 30 wks (PK2), LPV/RTV 400mg/100mg twice daily, median
[10] = female, human, total (bound + unbound), 32 wks (PK3), LPV/RTV 500mg/125mg twice daily, median
[11] = total (bound + unbound), 8 wks postpartum (PK4), LPV/RTV 400mg/100mg twice daily, median
[12] = total (bound + unbound), 20–24 wks (PK1), LPV/RTV 400mg/100mg twice daily, median
[13] = total (bound + unbound), 30 wks (PK2), LPV/RTV 400mg/100mg twice daily, median
[14] = total (bound + unbound), 32 wks (PK3), LPV/RTV 500mg/125mg twice daily, median

Cc1cccc(C)c1OCC(=O)N[C@@H](Cc1ccccc1)[C@@H](O)C[C@H](Cc1ccccc1)NC(=O)[C@H](C(C)C)N1CCCNC1=O [Lopinavir, lopinavir]
minimum effective concentration (wild-type virus): 1 µg/mL | increase in protein-unbound AUC0–12h with the increased dose ([1]; PK2 vs PK3): < 15% | share of all unbound concentrations below the wild type IC50 of 0.00064 µg/mL ([1]; all visits): Less than 2% | concentration at 12 h [1, 3]: 160 ng/mL | concentration at 12 h [1, 4]: 150 ng/mL | concentration at 12 h [1, 5]: 100 ng/mL | concentration at 12 h [1, 6]: 120 ng/mL | AUC(0-t) [1, 3]: 2600 ng·h/mL | AUC(0-t) [1, 4]: 1600 ng·h/mL | AUC(0-t) [1, 5]: 1600 ng·h/mL | AUC(0-t) [1, 6]: 1800 ng·h/mL | Cmax [1, 3]: 280 ng/mL | Cmax [1, 4]: 180 ng/mL | Cmax [1, 5]: 210 ng/mL | Cmax [1, 6]: 240 ng/mL | C12h [1, 3]: 160 ng/mL | Cl [1, 3]: 92 L/h | C12h [1, 4]: 150 ng/mL | Cl [1, 4]: 123 L/h | C12h [1, 5]: 100 ng/mL | Cl [1, 5]: 155 L/h | C12h [1, 6]: 120 ng/mL | Cl [1, 6]: 131 L/h | postpartum total C12h higher than at any point during pregnancy (Total; female, human, in vivo, 12 h): 38–80% | women with total lopinavir C12h below 4 µg/mL (Total; second trimester, standard-dose LPV/RTV, 12 participants): 33% | protein-unbound IC50 (50% inhibitory concentration) (wild type virus (HIV)): 0.64 ng/mL and 0.64 to 0.77 ng/mL

CC(C)c1nc(CN(C)C(=O)N[C@H](C(=O)N[C@@H](Cc2ccccc2)C[C@H](O)[C@H](Cc2ccccc2)NC(=O)OCc2cncs2)C(C)C)cs1 [Ritonavir, ritonavir]
concentration at 12 h [1, 3]: 30 ng/mL | concentration at 12 h [1, 4]: 20 ng/mL | concentration at 12 h [1, 5]: 20 ng/mL | concentration at 12 h [1, 6]: 20 ng/mL | AUC(0-t) [1, 3]: 500 ng·h/mL | AUC(0-t) [1, 4]: 400 ng·h/mL | AUC(0-t) [1, 6]: 300 ng·h/mL | Cmax [1, 3]: 80 ng/mL | Cmax [1, 4]: 60 ng/mL | Cmax [1, 5]: 50 ng/mL | Cmax [1, 6]: 50 ng/mL | Cl [1, 3]: 127 L/h | Cl [1, 4]: 169 L/h | Cl [1, 5]: 261 L/h | Cl [1, 6]: 306 L/h | concentration at 12 h (Total; [7]): 280 ng/mL | concentration at 12 h (Total; [8]): 120 ng/mL | concentration at 12 h (Total; [9]): 120 ng/mL | concentration at 12 h (Total; [10]): 150 ng/mL | AUC(0-t) (Total; [8]): 2500 ng·h/mL | AUC(0-t) (Total; [9]): 2300 ng·h/mL | AUC(0-t) (Total; [10]): 2400 ng·h/mL | Cmax (Total; [7]): 620 ng/mL | Cmax (Total; [8]): 350 ng/mL | Cmax (Total; [9]): 300 ng/mL | Cmax (Total; [10]): 360 ng/mL | AUC0–12h (Total; [11]): 5200 ng·h/mL | C12h (Total; [11]): 280 ng/mL | Cl (apparent oral clearance) (Total; [11]): 12 L/h | C12h (Total; [12]): 120 ng/mL | Cl (apparent oral clearance) (Total; [12]): 29 L/h | C12h (Total; [13]): 120 ng/mL | Cl (apparent oral clearance) (Total; [13]): 33 L/h | C12h (Total; [14]): 150 ng/mL | Cl (apparent oral clearance) (Total; [14]): 37 L/h | bound to the blood plasma proteins [2]: 98–99%
